The source of these data is ChEMBL document CHEMBL1649577, “Influence of recombination on development of mutational resistance to linezolid in Enterococcus faecalis JH2-2” (2009).

SMILES strings stand for the structures. Converted amounts (≈) assume the structure as drawn.

What all share (format): functional
Assay [1] has as its system Enterococcus faecalis. Briefly: Antimicrobial activity against Enterococcus faecalis JH2-2 harboring nucleotides at position 2576 in rrlA 2576T, rrlB 2576G, rrlC 2576G/T and rrlD 2576T after 6, 8 passages under Linezolid selective pressure by agar dilution method. In general terms: Agar dilution tests growth on a series of plates holding different concentrations.
For assay [2], the system named is Enterococcus faecalis. Briefly: Antimicrobial activity against recombination-deficient Enterococcus faecalis JH2-2 recA harboring nucleotides at position 2576 in rrlA 2576T, rrlB 2576G, rrlC 2576T and rrlD 2576T after 10, 11 passages under Linezolid selective pressure by agar dilution method.
The subject of assay [3] is Enterococcus faecalis. Briefly: Antimicrobial activity against Enterococcus faecalis JH2-2 harboring nucleotides at position 2576 in rrlA 2576T, rrlB 2576G, rrlC 2576T and rrlD 2576T after 9, 10, 11 passages under Linezolid selective pressure by agar dilution method.

Broadly, the MIC is the lowest concentration found to suppress growth. In the case of `CC(=O)NC[C@H]1CN(c2ccc(N3CCOCC3)c(F)c2)C(=O)O1` [LINEZOLID], the minimum inhibitory concentration (MIC) against Enterococcus faecalis [1] amounted to 32 µg/mL (≈ 94.9 µM); with Enterococcus faecalis [2], 32 µg/mL; against Enterococcus faecalis [3], 64 µg/mL (≈ 190 µM).
